# In BindingDB's records for doi:10.1073/pnas.92.8.3298 (Agouron Pharmaceuticals, 1995):
# Target: T1, Dimer of Gag-Pol polyprotein [489-587] (Human immunodeficiency virus 1, UniProt P12497)
# T1 construct: 489-587
# Assay: Protease Inhibition Assay
# Details: pH 5.6; 37 °C
# Procedure: Protease activity was measured by continuous chromogenic assay. The chromogenic peptide His-Lys-Ala-Arg-Val-Leu- (p-NO2-Phe)-Glu-Ala-Nleu-Ser (Bachem) was used as a substrate. Reactions were followed by the decrease of absorbance at 300 nm measured by spectrophotometer. Experimental results were analyzed by the nonlinear regression analysis, using a mathematical model for tight binding inhibitors.
row,Structure (SMILES),Ki [nM]
1,CC(C)(c1ccccc1)N(CCO)C(=O)c1ccccc1CCC(O)Cc1ccccc1C(=O)N(CCO)C(C)(C)c1ccccc1 (stereo not drawn) [2-(3-hydroxy-4-{2-[(2-hydroxyethyl)(2-phenylpropan-2-yl)carbamoyl]phenyl}butyl)-N-(2-hydroxyethyl)-N-(2-phenylpropan-2-yl)benzamide],22
2,CC(C)(C)NC(=O)c1ccccc1CCC(O)Cc1ccccc1C(=O)NC(C)(C)C (stereo not drawn) [2-Butanol deriv. 8],24000
3,CCC1(N(CCO)C(=O)c2ccccc2CC[C@@H](O)Cc2ccc(C)cc2C(=O)N(CCO)C(C)(C)c2ccccc2)CCCC1 [2-[(2R)-4-{2-[(1-ethylcyclopentyl)(2-hydroxyethyl)carbamoyl]phenyl}-2-hydroxybutyl]-N-(2-hydroxyethyl)-5-methyl-N-(2-phenylpropan-2-yl)benzamide],4.8
4,CCC1(N(CCO)C(=O)c2ccccc2CC[C@H](O)Cc2ccc(C)cc2C(=O)N(CCO)C(C)(C)c2ccccc2)CCCC1 [2-[(2S)-4-{2-[(1-ethylcyclopentyl)(2-hydroxyethyl)carbamoyl]phenyl}-2-hydroxybutyl]-N-(2-hydroxyethyl)-5-methyl-N-(2-phenylpropan-2-yl)benzamide],1400
5,"CC(C)(C)NC(=O)c1ccccc1C[C@@H](O)[C@H](Cc1ccccc1)NC(=O)[C@H](CC(N)=O)NC(=O)c1ccc2ccccc2n1 [(2S)-N-[(2S,3R)-4-[2-(tert-butylcarbamoyl)phenyl]-3-hydroxy-1-phenylbutan-2-yl]-2-(quinolin-2-ylformamido)butanediamide]",1.6
6,CC(C)(C)N(CCO)C(=O)c1ccccc1CCC(O)Cc1ccccc1C(=O)N(CCO)C(C)(C)c1ccccc1 (stereo not drawn) [N-tert-butyl-2-(3-hydroxy-4-{2-[(2-hydroxyethyl)(2-phenylpropan-2-yl)carbamoyl]phenyl}butyl)-N-(2-hydroxyethyl)benzamide],90
7,"CC(C)(C)NC(=O)c1ccccc1CC(O)CSc1ccccc1NC(=O)C(C)(C)C (stereo not drawn) [N-tert-butyl-2-(3-{[2-(2,2-dimethylpropanamido)phenyl]sulfanyl}-2-hydroxypropyl)benzamide]",> 100000
8,CC(C)(C)NC(=O)c1ccccc1CC(O)CSc1ccccc1C(=O)NC(C)(C)C (stereo not drawn) [N-tert-butyl-2-(3-{[2-(tert-butylcarbamoyl)phenyl]sulfanyl}-2-hydroxypropyl)benzamide],83000
9,CC(C)(C)NC(=O)c1c(CC[C@H](O)Cc2ccc3ccccc3c2C(=O)NC(C)(C)C)ccc2ccccc12 [N-tert-butyl-2-[(3S)-4-[1-(tert-butylcarbamoyl)naphthalen-2-yl]-3-hydroxybutyl]naphthalene-1-carboxamide],481
10,CC(C)(C)NC(=O)c1ccccc1CCC(O)Cc1ccc2ccccc2c1C(=O)NC(C)(C)C (stereo not drawn) [N-tert-butyl-2-{4-[2-(tert-butylcarbamoyl)phenyl]-2-hydroxybutyl}naphthalene-1-carboxamide],2200
11,CC(C)(C)NC(=O)c1ccccc1SCC(O)Cc1ccccc1C(=O)N(CCO)C(C)(C)C (stereo not drawn) [Tertiary Amide deriv. 6],34000
12,CCC1(N(CCO)C(=O)c2ccccc2CCC(O)Cc2ccc(Cl)cc2C(=O)N(CCO)C(C)(C)c2ccccc2)CCCC1 (stereo not drawn) [Tertiary Amide deriv. 43cb],2
13,CC(C)(C)NC(=O)c1c(CC[C@@H](O)Cc2ccc3ccccc3c2C(=O)NC(C)(C)C)ccc2ccccc12 [diarylbutanol deriv. 7R],25000
